Reference: the Kinase Knowledgebase extract (Sharma et al. 2016)

Target: ROCK2 (UniProt O75116)
Test: Inhibition of ROCK2 Kinase Activity

Sequence of ROCK2 (O75116 whole entry, looked up): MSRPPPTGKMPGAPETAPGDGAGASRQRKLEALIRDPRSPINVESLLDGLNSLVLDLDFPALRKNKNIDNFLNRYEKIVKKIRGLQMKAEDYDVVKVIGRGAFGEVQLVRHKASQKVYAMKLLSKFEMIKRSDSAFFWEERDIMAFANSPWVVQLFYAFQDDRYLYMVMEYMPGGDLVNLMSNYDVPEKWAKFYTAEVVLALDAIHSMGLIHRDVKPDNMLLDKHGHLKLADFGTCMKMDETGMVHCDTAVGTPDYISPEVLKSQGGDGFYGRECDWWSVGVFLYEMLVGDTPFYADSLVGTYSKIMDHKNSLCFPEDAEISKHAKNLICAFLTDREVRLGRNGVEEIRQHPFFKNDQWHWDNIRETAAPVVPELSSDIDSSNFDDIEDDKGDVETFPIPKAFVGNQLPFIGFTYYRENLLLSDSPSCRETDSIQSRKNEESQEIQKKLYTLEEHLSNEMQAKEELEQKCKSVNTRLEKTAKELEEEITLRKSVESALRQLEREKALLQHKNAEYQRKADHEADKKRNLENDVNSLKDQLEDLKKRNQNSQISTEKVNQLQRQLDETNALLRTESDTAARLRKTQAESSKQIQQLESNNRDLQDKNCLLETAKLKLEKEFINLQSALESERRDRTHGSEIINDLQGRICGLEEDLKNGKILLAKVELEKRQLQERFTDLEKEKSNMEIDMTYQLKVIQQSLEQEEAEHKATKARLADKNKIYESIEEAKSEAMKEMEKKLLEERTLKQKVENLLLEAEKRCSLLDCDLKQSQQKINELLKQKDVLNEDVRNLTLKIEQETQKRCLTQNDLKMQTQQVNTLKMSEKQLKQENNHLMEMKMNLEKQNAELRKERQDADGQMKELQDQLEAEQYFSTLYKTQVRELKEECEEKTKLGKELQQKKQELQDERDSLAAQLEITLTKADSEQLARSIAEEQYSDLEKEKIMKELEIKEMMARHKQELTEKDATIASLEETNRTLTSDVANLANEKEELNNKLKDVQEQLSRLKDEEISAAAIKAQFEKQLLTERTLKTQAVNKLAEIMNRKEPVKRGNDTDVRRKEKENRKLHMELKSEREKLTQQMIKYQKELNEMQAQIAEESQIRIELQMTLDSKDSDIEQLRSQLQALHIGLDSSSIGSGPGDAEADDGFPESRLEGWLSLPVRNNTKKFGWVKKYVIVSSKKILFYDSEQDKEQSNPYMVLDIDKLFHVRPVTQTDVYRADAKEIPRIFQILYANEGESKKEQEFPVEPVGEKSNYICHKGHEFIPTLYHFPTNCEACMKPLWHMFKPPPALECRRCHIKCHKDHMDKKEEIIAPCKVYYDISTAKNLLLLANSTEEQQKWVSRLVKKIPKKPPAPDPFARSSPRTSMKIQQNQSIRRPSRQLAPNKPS

| Compound | Ki |
| --- | --- |
| CCOc1c(-c2ccc(C(C)(C)N)cc2)ccc2[nH]ncc12 | 17 nM |
| COc1c(-c2ccc(C(C)(C)N)cn2)ccc2[nH]ncc12 | 27 nM |
| CC(C)(N)c1ccc(-c2ccc3[nH]ncc3c2)cc1 | 19 nM |
| CC(C)(N)c1ccc(-c2ccc3[nH]ncc3c2-c2cc[nH]n2)cc1 | 11 nM |
| COC(=O)c1n[nH]c2ccc(-c3ccc(C(C)(C)N)cc3)cc12 | 97 nM |
| CC(C)(N)c1ccc(-c2ccc3[nH]nc(CO)c3c2)cc1 | 142 nM |
| COc1c(-c2ccc(C3(N)CCCC3)cn2)ccc2[nH]ncc12 | 27 nM |
| CC(C)(N)c1ccc(-c2ccc3[nH]ncc3c2NCc2ccccc2)cc1 | 260 nM |
| CC(C)(N)c1ccc(-c2ccc3[nH]ncc3c2-c2ccccn2)cc1 | 241 nM |
| NCc1ccc(-c2ccc3[nH]ncc3c2N)cc1 | 61 nM |
| C=CCOc1c(-c2ccc(C(C)(C)N)cc2)ccc2[nH]ncc12 | 23 nM |
| CN(C)c1c(-c2ccc(C(C)(C)N)cc2)ccc2[nH]ncc12 | 16 nM |
| CC(C)Oc1c(-c2ccc(C(C)(C)N)cn2)ccc2[nH]ncc12 | 84 nM |
| CCOc1c(-c2ccc(C(C)(C)N)cn2)ccc2[nH]ncc12 | 45 nM |
| CC(C)(N)c1ccc(-c2ccc3[nH]ncc3c2OC(F)F)cc1 | 3.6 nM |
| CC(C)(N)c1ccc(-c2ccc3[nH]ncc3c2C2CC2)nc1 | 2.7 nM |
| CCCCOc1c(-c2ccc(C(C)(C)N)cc2)ccc2[nH]ncc12 | 13 nM |
| CC(C)(N)c1ccc(-c2ccc3[nH]ncc3c2-c2cn[nH]c2)nc1 | 56 nM |
| CC(C)(N)c1ccc(-c2ccc3[nH]ncc3c2OC2CC2)nc1 | 28 nM |
| CCC(N)(CC)c1ccc(-c2ccc3[nH]ncc3c2N(C)C)cc1 | 23 nM |
| CC(C)(N)c1ccc(-c2ccc3[nH]ncc3c2O)cc1 | 29 nM |
| CC(C)(N)c1ccc(-c2ccc3[nH]ncc3c2-c2cnco2)cc1 | 2.6 nM |
| CC(C)(N)c1ccc(-c2ccc3[nH]ncc3c2OCCF)cc1 | 26 nM |
| CC(C)(N)c1ccc(-c2ccc3[nH]ncc3c2CO)cc1 | 139 nM |
| CC(C)(N)c1ccc(-c2ccc3[nH]ncc3c2-c2ccncc2)cc1 | 45 nM |
| CC(C)(N)c1ccc(-c2ccc3[nH]ncc3c2)nc1 | 20 nM |
| CC(C)(N)c1ccc(-c2ccc3[nH]nc(N)c3c2)cc1 | 144 nM |
| CC(O)c1c(-c2ccc(C(C)(C)N)cc2)ccc2[nH]ncc12 (stereo not drawn) | 294 nM |

Further compounds by falling Ki, results first:

| Ki | Compound |
| --- | --- |
| 614 nM | CCN(CC)c1c(-c2ccc(C(C)(C)N)cc2)ccc2[nH]ncc12 |
| 234 nM | CC(C)(N)c1ccc(-c2ccc3[nH]ncc3c2CCO)nc1 |
| 211 nM | CC(C)(N)c1ccc(-c2ccc3[nH]ncc3c2N2CCOCC2)cc1 |
| 199 nM | CC(C)(N)c1ccc(-c2ccc3[nH]ncc3c2[N+](=O)[O-])nc1 |
| 146 nM | CC(C)(N)c1ccc(-c2ccc3[nH]ncc3c2OCC2CC2)nc1 |
| 134 nM | CC(C)(N)c1ccc(-c2ccc3[nH]nc(C(N)=O)c3c2)cc1 |
| 126 nM | CC(C)(N)c1ccc(-c2ccc3[nH]ncc3c2-c2cccnc2)cc1 |
| 103 nM | CC(C)(N)c1ccc(-c2ccc3[nH]nc(C#N)c3c2)cc1 |
| 86 nM | CC(C)(N)c1cnc(-c2ccc3[nH]ncc3c2)c(Cl)c1 |
| 56 nM | C=C(C)c1n[nH]c2ccc(-c3ccc(C(C)(C)N)cc3)cc12 |
| 55 nM | NCc1ccc(-c2ccc3[nH]ncc3c2[N+](=O)[O-])cc1 |
| 55 nM | CC(C)(N)c1ccc(-c2ccc3[nH]ncc3c2O)nc1 |
| 47 nM | CC(C)(N)c1ccc(-c2ccc3[nH]ncc3c2CCO)cc1 |
| 44 nM | CC(C)(N)c1ccc(-c2ccc3[nH]ncc3c2N)cc1 |
| 39 nM | CCCOc1c(-c2ccc(C(C)(C)N)cn2)ccc2[nH]ncc12 |
| 38 nM | CCC(N)(CC)c1ccc(-c2ccc3[nH]ncc3c2N)cc1 |
| 38 nM | CCC(N)(CC)c1ccc(-c2ccc3[nH]ncc3c2OC)nc1 |
| 35 nM | CCOc1c(-c2ccc(C(N)(CC)CC)cn2)ccc2[nH]ncc12 |
| 35 nM | CC(C)(N)c1ccc(-c2ccc3[nH]ncc3c2C#N)cc1 |
| 34 nM | CCC(N)(CC)c1ccc(-c2ccc3[nH]ncc3c2OC2CC2)nc1 |

| Ki | Compound |
| --- | --- |
| 33 nM | CC(C)Oc1c(-c2ccc(C(C)(C)N)cc2)ccc2[nH]ncc12 |
| 31 nM | CC(C)(N)c1ccc(-c2ccc3[nH]ncc3c2OCC(F)(F)F)cc1 |
| 29 nM | CN(C)c1c(-c2ccc(CN)cc2)ccc2[nH]ncc12 |
| 28 nM | CC(C)(N)c1ccc(-c2ccc3[nH]ncc3c2[N+](=O)[O-])cc1 |
| 27 nM | CC(N)c1ccc(-c2ccc3[nH]ncc3c2N(C)C)cc1 (stereo not drawn) |
| 26 nM | Nc1c(-c2ccc(C3(N)CCCC3)cc2)ccc2[nH]ncc12 |
| 17 nM | C=Cc1c(-c2ccc(C(C)(C)N)cn2)ccc2[nH]ncc12 |
| 15 nM | CCc1c(-c2ccc(C(C)(C)N)cn2)ccc2[nH]ncc12 |
| 15 nM | CNc1c(-c2ccc(C(C)(C)N)cc2)ccc2[nH]ncc12 |
| 14 nM | CC(C)(N)c1ccc(-c2ccc3[nH]ncc3c2N2CCCC2)cc1 |
| 14 nM | CCCOc1c(-c2ccc(C(C)(C)N)cc2)ccc2[nH]ncc12 |
| 14 nM | CC(C)(N)c1ccc(-c2ccc3[nH]ncc3c2N2CCCCC2)cc1 |
| 14 nM | CN(C)c1c(-c2ccc(C3(N)CCCC3)cc2)ccc2[nH]ncc12 |
| 13 nM | CCC(N)(CC)c1ccc(-c2ccc3[nH]ncc3c2OC(F)F)cc1 |
| 13 nM | COc1c(-c2ccc(C(C)(C)N)cc2)ccc2[nH]ncc12 |
| 12 nM | CC(C)(N)c1ccc(-c2ccc3[nH]ncc3c2-n2cccc2)cc1 |
| 7.5 nM | CC(C)(N)c1ccc(-c2ccc3[nH]nc(C=NO)c3c2)cc1 |
| 6.9 nM | CC(C)(N)c1ccc(-c2ccc3[nH]ncc3c2OC(F)F)nc1 |
| 6.4 nM | CC(C)(N)c1ccc(-c2ccc3[nH]ncc3c2-c2ccno2)cc1 |
| 4.4 nM | CC(C)(N)c1ccc(-c2ccc3[nH]ncc3c2-c2cn[nH]c2)cc1 |
